Assay results taken from BindingDB's records for doi:10.1021/jm990614i (Harvard Medical School, 2000).

What was measured:
[1] = molecular target: Aldehyde dehydrogenase, mitochondrial (Mesocricetus auratus); assay: Compound was evaluated for the inhibition of Hamster Liver mitochondrial ALDH-2
[2] = molecular target: Aldehyde dehydrogenase, mitochondrial (Mesocricetus auratus); assay: Inhibition of Hamster Liver mitochondrial ALDH-2

IC50 [1] | IC50 [2] | SMILES
– | 40 nM | CCOc1ccc2c(=O)c(-c3ccc(O)cc3)coc2c1 [7-Ethoxy-3-(4-hydroxy-phenyl)-chromen-4-one]
– | 9 nM | O=C(O)CCCCCCOc1ccc2c(=O)c(-c3ccc(O)cc3)coc2c1 [7-[3-(4-Hydroxy-phenyl)-4-oxo-4H-chromen-7-yloxy]-heptanoic acid]
– | 4 nM | O=C(O)CCCCCCCCCOc1ccc2c(=O)c(-c3ccc(O)cc3)coc2c1 [10-(3-(4-hydroxyphenyl)-4-oxo-4H-chromen-7-yloxy)decanoic acid]

More lines, now with the values behind:

SMILES | IC50 [1] | IC50 [2]
O=c1c(-c2ccc(O)cc2)coc2cc(OCC(O)CO)ccc12 (stereo unspecified) [7-(2,3-Dihydroxy-propoxy)-3-(4-hydroxy-phenyl)-chromen-4-one] | 100 nM | –
O=c1c(-c2ccc(O)cc2)coc2cc(OCCC3OCCCO3)ccc12 [7-(2-[1,3]Dioxan-2-yl-ethoxy)-3-(4-hydroxy-phenyl)-chromen-4-one] | – | 400 nM
C=CCOc1ccc2c(=O)c(-c3ccc(O)cc3)coc2c1 [7-Allyloxy-3-(4-hydroxy-phenyl)-chromen-4-one] | – | 800 nM
